According to patent US6410558B1, “Fungicides for the control of take-all disease of plants” (Monsanto Technology LLC, priority 1991, dated 2002):

Key:
[1] = tested on: Gaeumannomyces graminis var. tritici (Ggt); assay: In vitro Assay: mycelial growth of Ggt on minimal media agar plates containing test compound; format: cell-based; details: dark, 19-20° C., 4 to 5 days, diameter of mycelial growth; for inhibition at 0.1 ppm / inhibition at 1 ppm / inhibition at 10 ppm: Gaeumannomyces graminis; for inhibition at 0.1 ppm / In vitro (ppm) 0.1, Percent Inhibition: 0.1 ppm in minimal media agar; for inhibition at 0.1 ppm: read-out: In vitro (ppm) 0.1, Percent Inhibition; for inhibition at 1 ppm / In vitro (ppm) 1, Percent Inhibition: 1 ppm in minimal media agar; for inhibition at 1 ppm: read-out: In vitro (ppm) 1, Percent Inhibition; for inhibition at 10 ppm / In vitro (ppm) 10, Percent Inhibition: 10 ppm in minimal media agar; for inhibition at 10 ppm: read-out: In vitro (ppm) 10, Percent Inhibition
Outline: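 Ggt mycelial diameter read after 4 to 5 days in darkness at 19-20° C, from three 4-mm plugs placed on Czapek Dox minimal agar containing test compound delivered in acetone. Inhibition expressed as percent versus untreated plates, plug size (4 mm) subtracted from both.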

[2] = tested on: Ggt; assay: In vivo Assay: control of Ggt on wheat grown in pots of Ggt-infested soil, root disease rating; parameters: species or system Gaeumannomyces graminis var. tritici; details: 0.5 mg active ingredient per pot, 'Bergen' or 'Anza' wheat in Ggt-infested soil, after four weeks, vs untreated control; for pest or weed control at 0.5 mg/pot: Gaeumannomyces graminis, 672 h, read-out: In vivo, percent disease control
Outline: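 Wheat ('Bergen' or 'Anza') seeds in soil infested with Ggt-colonised oats (4% v/v) treated at 0.5 mg active ingredient per pot in acetone/water with Tween 20; five pots per treatment. After four weeks, seminal roots rated 0–5; trimmed mean of three replicates converted to percent disease control versus untreated.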

CCNC(=O)c1c(C(F)(F)F)cccc1[Si](C)(C)C [Example 82, N-Ethyl-2-(trifluoromethyl)-6-(trimethylsilyl)benzamide]
inhibition at 0.1 ppm [1]: 30% | inhibition at 1 ppm [1]: < 0% | inhibition at 10 ppm [1]: 57% | pest or weed control at 0.5 mg/pot [2]: 58%

CCN(CC)C(=S)c1cccc(F)c1[Si](C)(C)C [Example 74, N,N-Diethyl-3-fluoro-2-(trimethylsilyl)thiobenzamide]
inhibition at 0.1 ppm [1]: 7% | inhibition at 1 ppm [1]: 31% | inhibition at 10 ppm [1]: 93% | pest or weed control at 0.5 mg/pot [2]: 47%

C=CC[Si](C)(C)c1cccc(Cl)c1C(=O)NCC [Example 179, 2-Chloro-6-(dimethyl-2-propenylsilyl)-N-ethylbenzamide]
inhibition at 0.1 ppm [1]: 85% | inhibition at 1 ppm [1]: 88% | inhibition at 10 ppm [1]: 91% | pest or weed control at 0.5 mg/pot [2]: 97%

CCN(CC)C(=O)c1ccccc1[Si](C)(C)C [Example 2, N,N-Diethyl-2-(trimethylsilyl)benzamide]
inhibition at 0.1 ppm [1]: 14% | inhibition at 1 ppm [1]: 36% | inhibition at 10 ppm [1]: 72% | pest or weed control at 0.5 mg/pot [2]: 74%

CCNC(=O)c1c([Si](C)(C)C)ccc(CF)c1Cl [Example 228, 2-Chloro-N-ethyl-3-(fluoromethyl)-6-(trimethylsilyl)benzamide]
inhibition at 0.1 ppm [1]: < 0% | inhibition at 1 ppm [1]: 87% | inhibition at 10 ppm [1]: 96% | pest or weed control at 0.5 mg/pot [2]: 84%

CCN(CC)C(=O)c1c(C)ccc(F)c1[Si](C)(C)C [Example 1, N,N-Diethyl-3-fluoro-6-methyl-2-(trimethylsilyl)benzamide]
inhibition at 0.1 ppm [1]: 6% | inhibition at 1 ppm [1]: 53% | inhibition at 10 ppm [1]: 74% | pest or weed control at 0.5 mg/pot [2]: 91%

CCN(CC)C(=O)c1c([Si](C)(C)C)ccc(C)c1Cl [Example 65, N,N-Diethyl-2-chloro-3-methyl-6-(trimethylsilyl)benzamide]
inhibition at 0.1 ppm [1]: 39% | inhibition at 1 ppm [1]: 56% | inhibition at 10 ppm [1]: 100% | pest or weed control at 0.5 mg/pot [2]: 95%

C[Si](C)(C)c1cccc(Cl)c1C(=O)Nc1ccccc1 [Example 16, 2-Chloro-N-phenyl-6-(trimethylsilyl)-benzamide]
inhibition at 0.1 ppm [1]: 11% | inhibition at 1 ppm [1]: 27% | inhibition at 10 ppm [1]: 76% | pest or weed control at 0.5 mg/pot [2]: 3%

CCN(CC)C(=O)c1c(F)ccc(F)c1[Si](C)(C)C [Example 56, N,N-Diethyl-3,6-difluoro-2-(trimethylsilyl)benzamide]
inhibition at 0.1 ppm [1]: 10% | inhibition at 1 ppm [1]: 31% | inhibition at 10 ppm [1]: 74% | pest or weed control at 0.5 mg/pot [2]: 91%

CSNC(=O)c1c(Cl)cccc1[Si](C)(C)C [Example 174, 2-Chloro-N-(methylthio)-6-(trimethylsilyl)benzamide]
inhibition at 0.1 ppm [1]: 12% | inhibition at 1 ppm [1]: 65% | pest or weed control at 0.5 mg/pot [2]: 0%

CC1CN(C(=O)c2c(Cl)cccc2[Si](C)(C)C)CC(C)O1 (stereo not drawn) [Example 130, N-[2-Chloro-6-(trimethylsilyl)benzoyl]-2,6-dimethylmorpholine]
inhibition at 0.1 ppm [1]: 16% | inhibition at 1 ppm [1]: 13% | inhibition at 10 ppm [1]: 39% | pest or weed control at 0.5 mg/pot [2]: 1%

C=C[Si](C)(c1ccccc1)c1cccc(Cl)c1C(=O)NCC (stereo not drawn) [Example 202, 2-Chloro-6-(ethenylmethylphenylsilyl)-N-ethylbenzamide]
inhibition at 0.1 ppm [1]: 33% | inhibition at 1 ppm [1]: 58% | inhibition at 10 ppm [1]: 88% | pest or weed control at 0.5 mg/pot [2]: 3%

CCN(CC)C(=O)c1c(C(F)(F)F)ccc(C(F)(F)F)c1[Si](C)(C)C [Example 62, N,N-Diethyl-2-(trimethylsilyl)-3,6-bis(trifluoromethyl)benzamide]
inhibition at 0.1 ppm [1]: 8% | inhibition at 1 ppm [1]: 3% | inhibition at 10 ppm [1]: 69% | pest or weed control at 0.5 mg/pot [2]: 9%

CCNC(=O)c1c([Si](C)(C)C)ccc(OC)c1Cl [Example 219, 2-Chloro-N-ethyl-3-methoxy-6-(trimethylsilyl)benzamide]
inhibition at 0.1 ppm [1]: 50% | inhibition at 1 ppm [1]: 94% | inhibition at 10 ppm [1]: 100% | pest or weed control at 0.5 mg/pot [2]: 97%

CCN(C(=O)c1ccccc1[Si](C)(C)C)C(OC)C(C)(C)C (stereo not drawn) [Example 187, N-Ethyl-N-(1-methoxy-2,2-dimethylpropyl)-2-(trimethylsilyl)benzamide]
inhibition at 0.1 ppm [1]: 13% | inhibition at 1 ppm [1]: 27% | inhibition at 10 ppm [1]: 97% | pest or weed control at 0.5 mg/pot [2]: 24%

CCN(CC)C(=O)c1c(C)cccc1[Si](C)(C)C [Example 3, N,N-Diethyl-2-methyl-6-(trimethylsilyl)benzamide]
inhibition at 0.1 ppm [1]: 19% | inhibition at 1 ppm [1]: 58% | inhibition at 10 ppm [1]: 75% | pest or weed control at 0.5 mg/pot [2]: 100%

C[Si](C)(C)c1cccc(Cl)c1C(=O)NCc1ccco1 [Example 32, 2-Chloro-N-(2-furylmethyl)-6-(trimethylsilyl)benzamide]
inhibition at 0.1 ppm [1]: 75% | inhibition at 1 ppm [1]: 100% | inhibition at 10 ppm [1]: 100% | pest or weed control at 0.5 mg/pot [2]: 85%

CCNC(=O)c1c(Cl)cccc1OC(C)(C)C [Example 89, N-Ethyl-2-chloro-6-(1,1-dimethylethoxy)benzamide]
inhibition at 0.1 ppm [1]: 19% | inhibition at 1 ppm [1]: 85% | inhibition at 10 ppm [1]: 100% | pest or weed control at 0.5 mg/pot [2]: 96%

CCN(CC)C(=O)c1c(C(F)F)ccc(F)c1[Si](C)(C)C [Example 52, N,N-Diethyl-6-(difluoromethyl)-3-fluoro-2-(trimethylsilyl)benzamide]
inhibition at 0.1 ppm [1]: 53% | inhibition at 1 ppm [1]: 81% | inhibition at 10 ppm [1]: 98% | pest or weed control at 0.5 mg/pot [2]: 96%

CCNC(=O)c1c(Cl)cccc1[Si](C)(C)CCl [Example 83, N-Ethyl-2-chloro-6-[(chloromethyl)dimethylsilyl]benzamide]
inhibition at 0.1 ppm [1]: 100% | inhibition at 1 ppm [1]: 100% | inhibition at 10 ppm [1]: 100% | pest or weed control at 0.5 mg/pot [2]: 99%

2-N,N-dipropyl-6-(trimethylsilyl)benzamide [Example 14]
In vitro (ppm) 0.1, Percent Inhibition [1]: 7% | In vitro (ppm) 1, Percent Inhibition [1]: 40% | In vitro (ppm) 10, Percent Inhibition [1]: 79% | In vivo, percent disease control [2]: 92%

CCN(CC)C(=O)c1c(C(F)(F)F)cccc1[Si](C)(C)C [Example 61, N,N-Diethyl-2-(trimethylsilyl)-6-(trifluoromethyl)benzamide]
inhibition at 0.1 ppm [1]: 9% | inhibition at 1 ppm [1]: 29% | inhibition at 10 ppm [1]: 49% | pest or weed control at 0.5 mg/pot [2]: 1%

CCNC(=O)c1c([Si](C)(C)C)ccc(Cl)c1F [Example 218, 3-Chloro-N-ethyl-2-fluoro-6-(trimethylsilyl)benzamide]
inhibition at 0.1 ppm [1]: 18% | inhibition at 1 ppm [1]: 94% | inhibition at 10 ppm [1]: 100% | pest or weed control at 0.5 mg/pot [2]: 99%

CCN(CC)C(=O)c1c(C)cccc1C(C)(C)C [Example 6, 2-(1,1-Dimethylethyl)-N,N-diethyl-6-methylbenzamide]
inhibition at 0.1 ppm [1]: 7% | inhibition at 1 ppm [1]: 2% | inhibition at 10 ppm [1]: 47% | pest or weed control at 0.5 mg/pot [2]: 37%

CCN(CC)C(=O)c1c(Cl)ccc[c]1[Sn]([CH3])([CH3])[CH3] [Example 7, 2-Chloro-N,N-diethyl-6-(trimethylstannyl)benzamide]
In vitro (ppm) 0.1, Percent Inhibition [1]: 42% | In vitro (ppm) 1, Percent Inhibition [1]: 77% | In vitro (ppm) 10, Percent Inhibition [1]: 100% | In vivo, percent disease control [2]: 93%
